Reference: patent US12479895B2, “C-terminal CDNF and MANF fragments, pharmaceutical compositions comprising same and uses thereof” (MyNeuroCure Oy, priority 2018, dated 2025)

Tests used:
ER stressed SCG neurons = assay: Survival of tunicamycin-treated (ER stressed) SCG sympathetic neurons after microinjection; format: cell-based, mice; details: for survived neurons as % compared to neurons grown in the presence of NGF: Table 1A (FIG. 14), microinjected into cytoplasm, tunicamycin 2 μM, CDNF (400); for Fold change of survived neurons compared to neurons injected with PBS: data of Table 1 divided by values of PBS
In short: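 Newborn mouse SCG neurons grown 5-6 days with 30 ng/ml NGF, then microinjected with CDNF (FL or C-terminal) plasmids (10 ng/ul, EGFP reporter) or proteins (200 ng/ul, Dextran Texas Red). Tunicamycin (2 μM) added next day. Fluorescent survivors counted blindly after 3 days as % of initial; compared with vector or PBS (ANOVA/Dunnett).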

dopamine neurons = assay: Survival of TH-positive dopamine neurons in dissociated midbrain floor cultures; format: cell-based, mouse; details: for survived neurons as % compared to neurons grown in the presence of GDNF: Table 3A (FIG. 15), 5 days; for Fold change of survived neurons compared to neurons grown without growth factors: data of Table 3 divided by values of no factor
In short: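 Dissociated E13.5 NMRI mouse midbrain floor neurons grown five days in DMEM/F12 with N2, with polypeptides at a range of concentrations, GDNF (100 ng/ml), or nothing. TH-immunopositive neurons were counted by imaging. Values are a percentage of GDNF-maintained TH-positive neurons, as mean ± SEM from at least three independent cultures.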

In the case of “VDLRKMRVAELKQILHSWGEECRACAEKTDYVNLIQELAPKYAATHPKTEL (listed as Homo sapiens) [pep5]”, the “survived neurons as % compared to neurons grown in the presence of NGF” value (“survived neurons as % … of NGF” for short) (ER stressed SCG neurons; AVG of exp1-2) is reported as 81.78 % NGF, the “survived neurons as % … of NGF” value (ER stressed SCG neurons; exp1, counted after 3 days) is reported as 86.36 % NGF and the “survived neurons as % … of NGF” value (ER stressed SCG neurons; exp2, counted after 3 days) is reported as 77.19 % NGF. The “Fold change of survived neurons compared to neurons injected with PBS” value (shortened to “Fold change of survived neurons … with PBS”) (ER stressed SCG neurons; Table 2, AVG) was 2.23 Fold to PBS, the “Fold change of survived neurons … with PBS” value (ER stressed SCG neurons; Table 2, exp1) was 2.52 Fold to PBS and the “Fold change of survived neurons … with PBS” value (ER stressed SCG neurons; Table 2, exp2) was 1.94 Fold to PBS. The “survived neurons as % compared to neurons grown in the presence of GDNF” value (from here on “survived neurons as % … of GDNF”) (dopamine neurons; AVG, 1 ng/ml) was 64.92 % GDNF, the “survived neurons as % … of GDNF” value (dopamine neurons; AVG, 10 ng/ml) was 76.19 % GDNF and the “survived neurons as % … of GDNF” value (dopamine neurons; AVG, 100 ng/ml) was 73.84 % GDNF. For the same sequence, the “survived neurons as % … of GDNF” value (dopamine neurons; AVG, 1000 ng/ml) was 65.13 % GDNF, the “survived neurons as % … of GDNF” value (dopamine neurons; exp1, 1 ng/ml) was 65.24 % GDNF and the “survived neurons as % … of GDNF” value (dopamine neurons; exp1, 10 ng/ml) was 61.71 % GDNF. For the same sequence, the “survived neurons as % … of GDNF” value (dopamine neurons; exp1, 100 ng/ml) was 59.82 % GDNF, the “survived neurons as % … of GDNF” value (dopamine neurons; exp1, 1000 ng/ml) was 59.11 % GDNF and the “survived neurons as % … of GDNF” value (dopamine neurons; exp2, 1 ng/ml) was 59.23 % GDNF. For the same sequence, the “survived neurons as % … of GDNF” value (dopamine neurons; exp2, 10 ng/ml) was 82.61 % GDNF, the “survived neurons as % … of GDNF” value (dopamine neurons; exp2, 100 ng/ml) was 75.53 % GDNF and the “survived neurons as % … of GDNF” value (dopamine neurons; exp2, 1000 ng/ml) was 58.84 % GDNF. The “survived neurons as % … of GDNF” value (dopamine neurons; exp3, 1 ng/ml) was 70.31 % GDNF, the “survived neurons as % … of GDNF” value (dopamine neurons; exp3, 10 ng/ml) was 84.24 % GDNF and the “survived neurons as % … of GDNF” value (dopamine neurons; exp3, 100 ng/ml) was 86.17 % GDNF. The “survived neurons as % … of GDNF” value (dopamine neurons; exp3, 1000 ng/ml) was 77.44 % GDNF, the “Fold change of survived neurons compared to neurons grown without growth factors” value (dopamine neurons; Table 4, AVG, 1 ng/ml) was 1.06 fold and the “Fold change of survived neurons compared to neurons grown without growth factors” value (dopamine neurons; Table 4, AVG, 10 ng/ml) was 1.23 fold. The “Fold change of survived neurons compared to neurons grown without growth factors” value (dopamine neurons; Table 4, AVG, 100 ng/ml) was 1.19 fold, the “Fold change of survived neurons compared to neurons grown without growth factors” value (dopamine neurons; Table 4, AVG, 1000 ng/ml) was 1.05 fold and the “Fold change of survived neurons compared to neurons grown without growth factors” value (dopamine neurons; Table 4, exp1, 1 ng/ml) was 1.14 fold. The “Fold change of survived neurons compared to neurons grown without growth factors” value (dopamine neurons; Table 4, exp1, 10 ng/ml) was 1.08 fold, the “Fold change of survived neurons compared to neurons grown without growth factors” value (dopamine neurons; Table 4, exp1, 100 ng/ml) was 1.05 fold and the “Fold change of survived neurons compared to neurons grown without growth factors” value (dopamine neurons; Table 4, exp1, 1000 ng/ml) was 1.03 fold. For the same sequence, the “Fold change of survived neurons compared to neurons grown without growth factors” value (dopamine neurons; Table 4, exp2, 1 ng/ml) was 0.94 fold, the “Fold change of survived neurons compared to neurons grown without growth factors” value (dopamine neurons; Table 4, exp2, 10 ng/ml) was 1.31 fold and the “Fold change of survived neurons compared to neurons grown without growth factors” value (dopamine neurons; Table 4, exp2, 100 ng/ml) was 1.20 fold. The “Fold change of survived neurons compared to neurons grown without growth factors” value (dopamine neurons; Table 4, exp2, 1000 ng/ml) was 0.93 fold, the “Fold change of survived neurons compared to neurons grown without growth factors” value (dopamine neurons; Table 4, exp3, 1 ng/ml) was 1.09 fold and the “Fold change of survived neurons compared to neurons grown without growth factors” value (dopamine neurons; Table 4, exp3, 10 ng/ml) was 1.30 fold. The “Fold change of survived neurons compared to neurons grown without growth factors” value (dopamine neurons; Table 4, exp3, 100 ng/ml) was 1.33 fold and the “Fold change of survived neurons compared to neurons grown without growth factors” value (dopamine neurons; Table 4, exp3, 1000 ng/ml) was 1.20 fold.
